What was measured:
[1] = test system: participants with poor sleeping quality (PSQI 11-13); assay: Sleep quality tracked monthly with the Pittsburgh Sleep Quality Index (PSQI), 6 groups of 3 participants; type: in vivo, human; settings: for PSQI M3: global PSQI score at month 3; for PSQI M3 / PSQI M4: With CBD (daily dosage per group, the 2nd table r16-r22); for PSQI M4: global PSQI score at month 4; for ΔPSQI (%): improvement of PSQI from M0 to M4
Procedure: Some experiment showing the effect of the combination of CBD and four different omega-3 compounds (Fish Oil (Non-polar DHA+EPA), Fish oil (Non-polar EPA), Schizochytrium Oil (Non-Polar DHA), Nannochloropsis Oil (polar EPA)) were conducted. Daily dosage of omega 3 (DHA and/or EPA) was […].
Materials: CBD: Fish oil (non-polar DHA+EPA), Schizochytrium Oil (non-polar DHA), Nannochloropsis Oil (polar-EPA), Fish oil (non-polar EPA).
Experimental Design: Sleep quality was the measured in this study, as an efficacy indication. The experiment included 6 groups (3 participants per group) 8 women and 10 men, with similar Pittsburgh Sleep Quality Index (PSQI) rating (11-13), indicating poor sleeping quality. The average age for the participants was 37.2. All 18 participants completed sleep assessments at the onset of CBD treatment and at the monthly follow-ups.
All participants were given CBD and/or Omega 3 every evening, after dinner, per table 1 below. Sleep quality was tracked on a monthly basis, for a period of up to 4 months, using the PSQI. This Index is a self-report measure that assesses the quality of sleep during a 1-month period. […] The PSQI measures several different aspects of sleep, offering seven component scores and one composite score. The component scores consist of subjective sleep quality, sleep latency (i.e., how long it takes to fall asleep), sleep duration, habitual sleep efficiency (i.e., the percentage of time in bed that one is asleep), sleep disturbances, use of sleeping medication, and daytime dysfunction.
Each item is weighted on a 0-3 interval scale. The global PSQI score was calculated by totaling the seven component scores, providing an overall score ranging from 0 to 21, where lower scores denote a healthier sleep quality. A higher number indicates more sleep-related concerns. A score of 5 or greater indicates a “poor sleeper”.

[2] = test system: individuals with insomnia; settings: cited from earlier work

Row | SMILES | effect on PSQI score / sleep quality, in words ([1]; comparison between groups) | PSQI M3 [1] | PSQI M4 [1] | ΔPSQI (%) [1] [%] | Sedation ([1]; sedation effect Y/N during CBD treatment, listed as High-dose CBD) | improvement of PSQI score, months 3-4 ([1]; months with CBD) | frequency of arousals during the night ([2]; high-dose (160 mg/day) CBD) | total sleep time ([2]; high-dose (160 mg/day) CBD) | wakefulness ([2]; low-dose CBD)
1 | C=C(C)[C@@H]1CCC(C)=C[C@H]1c1c(O)cc(CCCCC)cc1O [Group A, Cannabidiol] | more efficient that low-dose CBD in improving PSQI score | 6.7 | 4.6 | 62 | had a sedation effect | – | – | – | –
2 | C=C(C)[C@@H]1CCC(C)=C[C@H]1c1c(O)cc(CCCCC)cc1O [Group B, Cannabidiol] | – | 11.3 | 9.3 | 24 | – | ~ 18% | – | – | –
3 | C=C(C)[C@@H]1CCC(C)=C[C@H]1c1c(O)cc(CCCCC)cc1O [CBD, Cannabidiol] | – | – | – | – | – | – | decreased the frequency of arousals during the night | increased total sleep time | increased wakefulness
